Measurements reported in patent publication US8436159B2, “Glyphosate resistant class I 5-endolpyruvylshikimate-3-phosphate synthase (EPSPS)” (Monsanto Technology LLC, priority 2003, dated 2013).

Key:
[1] = molecular target: T1, maize (Zea mays) class I EPSPS variant TIPS (T102I, P106S), pMON70462 (Zea mays, UniProt O24566, P106S/T102I); assay: EPSPS steady-state kinetics, TIPS variant; format: biochemical
T1 construct: pMON70462
T1 sequence (O24566 1-444 T102I/P106S): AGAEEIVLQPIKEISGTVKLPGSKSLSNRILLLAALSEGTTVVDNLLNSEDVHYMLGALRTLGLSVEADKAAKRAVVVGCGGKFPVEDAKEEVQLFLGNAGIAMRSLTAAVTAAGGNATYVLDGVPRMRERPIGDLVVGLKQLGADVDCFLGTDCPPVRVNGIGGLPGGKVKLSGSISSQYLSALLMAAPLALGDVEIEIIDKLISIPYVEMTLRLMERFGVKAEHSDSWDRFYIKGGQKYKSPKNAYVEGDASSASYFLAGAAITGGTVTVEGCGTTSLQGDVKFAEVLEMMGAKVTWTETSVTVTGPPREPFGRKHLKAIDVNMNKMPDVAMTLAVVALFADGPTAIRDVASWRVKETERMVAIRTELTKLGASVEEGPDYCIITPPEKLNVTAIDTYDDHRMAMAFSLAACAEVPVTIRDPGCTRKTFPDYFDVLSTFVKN
Experimental: The wild type and variant EPSPS coding sequences were cloned into a pET-19b base vector (Novagen, Madison, Wis.). The plant (maize) class I EPSPS variants so created were assigned pMON plasmid numbers (Table 2). The variant EPSPS proteins were purified from the E. coli host using the protocols outlined in the pET system manual, 9th edition (Novagen) or by the following method. A single colony or a few microliters from a glycerol stock was inoculated into 4 mL LB medium containing 0.1 mg/mL carbenicillin antibiotic. The culture was incubated with shaking at 37 C for 4 hours. The cultures were stored at 4° C. overnight. The following morning, 1 mL of the overnight culture was used to inoculate 100 mL of fresh LB medium containing 0.1 mg/mL carbenicillin. The cultures were incubated with shaking at 37 C for 4-5 hours, then the cultures were placed at 4° C. for 5-10 minutes. The cultures were then induced with IPTG (1 mM final concentration) and incubated with shaking at 30 C for 4 hours or 20° C. overnight. The cells were harvested by centrifugation at 7000 rpm for 20 minutes at 4° C. The supernatant was removed and the cells were frozen at −70° C. until further use. The proteins were extracted by resuspending the cell pellet in BugBuster reagent (Novagen) using 5 mL reagent per gram of cells. […]

E. coli EPSPS, native = conditions: native enzyme; read-out: apparent Ki for glyphosate; cited from earlier work

In the case of `O=C(O)CNCP(=O)(O)O` [glyphosate, N-phosphonomethylglycine], the Ki [1] is listed as 58 ± 14 µM and the Ki (E. coli EPSPS, native) is listed as 0.5 µM.
